Measured values taken from publication PMC12752568, “Aloe‐Emodin Targeting FOXC2 Disrupts NETs Formation and EMT‐Driven Postoperative Peritoneal Adhesion Through TGF‐β1‐Smad2/3 Pathway” (Advanced Science, 2025).
Substitutions are numbered along the chain they refer to.

Experiments:
Type in all cases: binding
[1] = target: T1, Forkhead box protein C2 (FOXC2) (Homo sapiens, UniProt Q99958); experiment: BLI (Octet RED […], Ni-NTA sensors); supported by AE-bead competitive pull-down from PMCs
T1 construct: recombinant His-tagged FOXC2 (WT), purified from HEK293T cells
T1 sequence (Q99958 1-501): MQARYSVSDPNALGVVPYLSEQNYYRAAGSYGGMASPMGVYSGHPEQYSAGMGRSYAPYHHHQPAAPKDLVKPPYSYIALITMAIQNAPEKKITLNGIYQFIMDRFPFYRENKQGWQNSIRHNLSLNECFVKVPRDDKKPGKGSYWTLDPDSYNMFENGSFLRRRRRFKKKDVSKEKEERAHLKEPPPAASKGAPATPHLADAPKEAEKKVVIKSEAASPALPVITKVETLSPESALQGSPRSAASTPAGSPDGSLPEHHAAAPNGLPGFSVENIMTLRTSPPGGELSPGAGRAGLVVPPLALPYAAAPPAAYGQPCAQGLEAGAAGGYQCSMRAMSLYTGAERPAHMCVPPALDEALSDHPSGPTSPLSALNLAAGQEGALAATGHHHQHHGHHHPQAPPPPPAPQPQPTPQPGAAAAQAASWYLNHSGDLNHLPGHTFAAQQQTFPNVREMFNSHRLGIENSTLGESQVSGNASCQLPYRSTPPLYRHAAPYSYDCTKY

[2] = target: T2, Forkhead box protein C2 (FOXC2) (Homo sapiens, UniProt Q99958, N127A); experiment: BLI (Octet RED […], Ni-NTA sensors); KD at fit limit
T2 construct: recombinant His-tagged FOXC2 mutant 2, purified from HEK293T cells
T2 sequence (Q99958 1-501 N127A): T1 sequence (Q99958 1-501) with N127A

[3] = target: T3, Forkhead box protein C2 (FOXC2) (Homo sapiens, UniProt Q99958, S125A); experiment: BLI (Octet RED […], Ni-NTA sensors)
T3 construct: recombinant His-tagged FOXC2 mutant 1, purified from HEK293T cells
T3 sequence (Q99958 1-501 S125A): T1 sequence (Q99958 1-501) with S125A

For `O=C1c2cccc(O)c2C(=O)c2c(O)cc(CO)cc21` [AE, 1,8‐dihydroxy‐3‐hydroxymethyl‐anthraquinone], the Kd [1] was 8.25 µM, the Kd [2] was < 1 pM and the Kd [3] was 13.3 µM.
